US11077128B2, “Selective inhibitors of Alpha2-containing isoforms of Na,K-ATPase and use thereof for reduction of intraocular pressure” (Yeda Research and Development Co. Ltd., priority 2015, dated 2021)

Columns and labels:
Test in all cases: biochemical
[1] = target: human Na,K-ATPase α2β3FXYD1 (Homo sapiens (Human), UniProt P50993); type: biochemical
[2] = target: human Na,K-ATPase α2β1FXYD1 (Homo sapiens, UniProt P50993); type: biochemical
[3] = target: human Na,K-ATPase α2β2FXYD1 (Homo sapiens (Human), UniProt P50993)
[4] = target: human Na,K-ATPase α1β1FXYD1 (Homo sapiens (Human), UniProt P05023)

Row | SMILES | Ki [1] [nM] | Ki reduced compared to digoxin [1] | Ki [2] [nM] | Ki [3] [nM] | Ki [4] [nM]
1 | CC1CN(CC2CC2)CCC(O[C@@H]2C(C)O[C@@H](OC3C(C)OC(O[C@H]4CC[C@@]5(C)C(CCC6C5CC[C@]5(C)[C@@H](C7=CC(=O)OC7)CC[C@]65O)C4)C[C@@H]3O)C[C@@H]2O)O1 (stereo in doubt) [DtxMcP, 4-((3S,5R,8R,9S,10S,13R,14S,17R)-3-(((2S,4S,5R,6R)-5-(((2S,4S,5S,6R)-5-((4-(cyclopropylmethyl)-2-methyl-1,4-oxazepan-7-yl)oxy)-4-hydroxy-6-methyltetrahydro-2H-pyran-2-yl)oxy)-4-hydroxy-6-methyltetrahydro-2H-pyran-2-yl)oxy)-14-hydroxy-10,13-dimethylhexadecahydro-1H-cyclopenta[a]phenanthren-17-yl)furan-2(5H)-one] | 3.7 ± 0.5 | about 10 fold | 4.2 ± 0.4 | 5.4 ± 1.2 | 25 ± 4
2 | CC1CN(C2CCC2)CCC(O[C@@H]2C(C)O[C@@H](OC3C(C)OC(O[C@H]4CC[C@@]5(C)C(CCC6C5CC[C@]5(C)[C@@H](C7=CC(=O)OC7)CC[C@]65O)C4)C[C@@H]3O)C[C@@H]2O)O1 (stereo in doubt) [DtxcB, 4-((3S,5R,8R,9S,10S,13R,14S,17R)-3-(((2S,4S,5R,6R)-5-(((2S,4S,5S,6R)-5-((4-cyclobutyl-2-methyl-1,4-oxazepan-7-yl)oxy)-4-hydroxy-6-methyltetrahydro-2H-pyran-2-yl)oxy)-4-hydroxy-6-methyltetrahydro-2H-pyran-2-yl)oxy)-14-hydroxy-10,13-dimethylhexadecahydro-1H-cyclopenta[a]phenanthren-17-yl)furan-2(5H)-one] | 4.3 ± 0.6 | about 10 fold | 5.4 ± 0.5 | 5.3 ± 0.8 | 30.7 ± 7.2
